Where “and” joins values, the source holds several entries; their conditions need not be identical. Identical values can stand only once. Entries after “also recorded” stand apart in the source; their conditions may differ.
System: BDI cultures
Test: TCC and TCS exposure: TCE reductive dechlorination by Bio-Dechlor INOCULUM
Format: cell-based
Conditions: for TCE completely dechlorinated to ethene in BDI / TCE transformed to VC in BDI: 1.5 μM TCC or 35 μM TCS, by day 27
Experimental: Cultures. Two cultures were used in this study: 1) Bio-Dechlor INOCULUM, which was obtained from Dr. Frank Loffler's laboratory at Georgia Tech; 2) DehaloR̂2 culture, developed from a sediment microcosm from the Chesapeake Bay “sediment core-D” with three-times continuous transfers described in Example 1.
TCC and TCS Exposure. For the TCC and TCS test, 1 ml ATCC mixed vitamin solution (Catalog No. MD-VS), 0.25 ml 20 mg/L vitamin B12 solution and 1 ml 500 mM lactate solution were filtered with a 0.2 μm sterile filter and added to 92.5 ml sterile anaerobic media in 160 ml serum bottles, and then 5 ml of culture was transferred into this fresh media. Lactate served as electron donor and carbon source. Fifty μl TCE stock solutions ([…] in methanol) were injected into the media with 500-μl Hamilton air-tight syringe (Reno, Nev.), and the final TCE concentration was 35 μmol per serum bottle. Ten μl TCC or TCS stock solutions in methanol or pure methanol was injected with 10 μl Hamilton air-tight syringe (Reno, Nev.) into the serum bottle. Three concentration levels of TCC or TCS stock solutions were made and listed in Table 8 to make the three final concentration levels of TCC or TCS. The middle concentration level of TCC and TCS in cultures was set according to the solubility of TCC and TCS at 20° C. The highest concentration of TCC and TCS is 10 times the solubility of TCC and TCS at 20° C., and the lowest concentration of TCC and TCS is 10% the solubility of TCC and TCS at 20° C.
The total aqueous volume in 160-ml serum bottle was 100 ml. Four BDI and four DehaloR̂2 cultures were generated for each concentration of TCC or TCS, and three of them were used for TCE dechlorination analysis and the other one was used for DNA extractions and molecular analysis. The error bars in the figures are the standard deviations for three independent cultures under the same conditions.
All cultures were stored in the dark and incubated at 30° C.
Analytical Methods. The concentrations of TCE and their reductive-dechlorinating byproducts, 1,1-DCE, cis-DCE, trans-DCE, VC, and ethene were quantified by gas chromatography with a flame ionization detector (GC-FID).
200 μl headspace gas samples were withdrawn from 160 ml serum bottle with 500 μl gas-tight syringes (Hamilton Company, Reno, Nev.) and analyzed by a Shimadzu GC-2010 (Columbia, Md.) with an Rt™-QSPLOT capillary column (30 m×0.32 mm×10 μm, Restek, Bellefonte, Pa.) and a flame ionization detector (FID). The initial oven temperature was 110° C. and was held constant for 5 min. Then the temperature was raised with a gradient of 10° C./min to 150° C., a second gradient at 20° C./min to 200° C., and a third gradient of 5° C./min to 220° C. At the end of this gradient, the oven temperature was held constant at 220° C. for 5 min. The temperature of FID and injector were 240° C. Ultra high purity helium was the carrier gas for the GC. Ultra high purity hydrogen and zero grade air were used for the FID.
Calibration curves for chlorinated compounds were determined based on the known mass of PCE, TCE, 1,1-DCE, cis-DCE and trans-DCE added to 160 ml serum bottles containing 100 ml of distilled-deionized water and equilibrated at 25° C. overnight. The contents were then analyzed using the Shimadzu GC-FID. Different volumes of 100 ppm and 1000 ppm VC and ethene gas were injected directly into GC using the 500 μl airtight syringe to make their calibration curves. The aqueous concentrations of PCE, TCE and their reaction products were calculated by using reported Henry's constants on the EPA website (Washington and Weaver, 2006)

[1] = highest level: 1.5 μM TCC or 35 μM TCS
[2] = lowest level: 0.015 μM TCC or 0.35 μM TCS
[3] = middle level: 0.15 μM TCC or 3.5 μM TCS

Row | Structure (SMILES) | TCE completely dechlorinated to ethene in BDI | TCE transformed to VC in BDI [%] | Maximum formation rate VC in BDI [1] [μmol vial^−1 day^−1] | Maximum formation rate cis-DCE in BDI [1] [μmol vial^−1 day^−1] | Maximum utilization rate TCE in BDI [1] [μmol vial^−1 day^−1] | Maximum utilization rate cis-DCE in BDI [1] [μmol vial^−1 day^−1] | effect on TCE reductive dechlorination in BDI cultures [1] | Maximum formation rate Ethene in BDI [2] [μmol vial^−1 day^−1] | Maximum formation rate VC in BDI [2] [μmol vial^−1 day^−1] | Maximum formation rate cis-DCE in BDI [2] [μmol vial^−1 day^−1] | Maximum utilization rate TCE in BDI [2] [μmol vial^−1 day^−1] | Maximum utilization rate VC in BDI [2] [μmol vial^−1 day^−1] | Maximum utilization rate cis-DCE in BDI [2] [μmol vial^−1 day^−1] | effect on TCE reductive dechlorination in BDI cultures [2] | Maximum formation rate Ethene in BDI [3] [μmol vial^−1 day^−1] | Maximum formation rate VC in BDI [3] [μmol vial^−1 day^−1] | Maximum formation rate cis-DCE in BDI [3] [μmol vial^−1 day^−1] | Maximum utilization rate TCE in BDI [3] [μmol vial^−1 day^−1] | Maximum utilization rate VC in BDI [3] [μmol vial^−1 day^−1] | Maximum utilization rate cis-DCE in BDI [3] | further results
1 | O=C(Nc1ccc(Cl)cc1)Nc1ccc(Cl)c(Cl)c1 [TCC, 3-(4-chlorophenyl)-1-(3,4-dichlorphenyl) urea] | 10% | 90 | 1.65 | 3.94 | 4.22 | 1.29 | significantly inhibited TCE reductive dechlorination | 2.32 | 1.11 | 7.98 | 9.23 | 1.35 | 2.99 | had no influence on TCE reductive dechlorination; also recorded: did not show any obvious effect | 3.3 | 1.38 | 7.04 | 7.47 | 0.33 | 2.6 μmol vial^−1 day^−1 | Maximum formation rate Ethene in BDI (highest level: 1.5 μM TCC): 0.19 μmol vial^−1 day^−1; effect on TCE reductive dechlorination in BDI cultures [3]: did not show any obvious effect
2 | Oc1cc(Cl)ccc1Oc1ccc(Cl)cc1Cl [TCS, 5-chloro-2-[2,4-dichloro-phenoxy]-phenol] | no ethene was produced | 7 | 1.21 | 6.41 | 8.75 | 0.11 | significantly inhibited TCE reductive dechlorination | 2.61 | 1.14 | 6.69 | 9.58 | 1.14 | 2.72 | had no influence on TCE reductive dechlorination; also recorded: did not show any obvious effect | 3.95 | 1.54 | 7.24 | 9.36 | 0.62 | 2.39 μmol vial^−1 day^−1 and 2.4 μmol vial^−1 day^−1 | VC produced in BDI (35 μM TCS): 3.6 µmol; TCE not dechlorinated in BDI (35 μM TCS, 27-day experiment): approximately 9%; TCE transformed to cis-DCE in BDI (35 μM TCS, within 27 days): 84%; effect on TCE reductive dechlorination in BDI cultures [3]: did not show any obvious effect
